± gives the standard deviation of the averaged measurements.
How the values were obtained:
CABOZANTINIB = compound: COc1cc2nccc(Oc3ccc(NC(=O)C4(C(=O)Nc5ccc(F)cc5)CC4)cc3)c2cc1OC [CABOZANTINIB]; assay: surviving fraction relative to DMSO-only wells; higher = less growth inhibition; conditions: exposure time: 5 days
In short: (§1)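 Inhibitors were tested at 0.5, 1, 5, 10, 50, 100, 500 and 1000 nM, applied continuously for five days beginning 24 hours after log-phase tumour cells were seeded at 250–500 per well in 384-well plates. CellTiter-Glo luminescence served as the viability measure, expressed as surviving fraction against the median of DMSO-only wells. Each line, screened three times, was kept only with replicate Pearson r >0.7 and median Z' >0.3.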

LENVATINIB = compound: COc1cc2nccc(Oc3ccc(NC(=O)NC4CC4)c(Cl)c3)c2cc1C(N)=O [LENVATINIB]; assay: as above; conditions: exposure time: 5 days
In short: as §1

| Test System | surviving fraction (CABOZANTINIB; 0.5 nM) | surviving fraction (CABOZANTINIB; 1 nM) | surviving fraction (CABOZANTINIB; 5 nM) | surviving fraction (CABOZANTINIB; 10 nM) | surviving fraction (CABOZANTINIB; 50 nM) | surviving fraction (CABOZANTINIB; 100 nM) | surviving fraction (CABOZANTINIB; 500 nM) | surviving fraction (CABOZANTINIB; 1000 nM) | surviving fraction (LENVATINIB; 0.5 nM) | surviving fraction (LENVATINIB; 1 nM) | surviving fraction (LENVATINIB; 5 nM) | surviving fraction (LENVATINIB; 10 nM) | surviving fraction (LENVATINIB; 50 nM) | surviving fraction (LENVATINIB; 100 nM) | surviving fraction (LENVATINIB; 500 nM) | surviving fraction (LENVATINIB; 1000 nM) |
| --- | --- | --- | --- | --- | --- | --- | --- | --- | --- | --- | --- | --- | --- | --- | --- | --- |
| MDAMB134 BREAST | 0.902 ± 0.12 | 0.888 ± 0.047 | 0.896 ± 0.13 | 1.04 ± 0.14 | 0.907 ± 0.23 | 0.943 ± 0.0042 | 0.955 ± 0.086 | 0.873 ± 0.086 | 1.12 ± 0.079 | 1.08 ± 0.044 | 1.16 ± 0.069 | 1.09 ± 0.011 | 1.29 ± 0.13 | 1.32 ± 0.14 | 0.972 ± 0.15 | 1.05 ± 0.057 |
| MDAMB157 BREAST | 0.933 ± 0.056 | 0.953 ± 0.049 | 1 ± 0.025 | 0.959 ± 0.031 | 0.994 ± 0.048 | 0.891 ± 0.054 | 0.798 ± 0.072 | 0.733 ± 0.03 | 0.97 ± 0.13 | 1.03 ± 0.081 | 0.993 ± 0.071 | 1.06 ± 0.11 | 0.934 ± 0.045 | 0.873 ± 0.069 | 0.7437 ± 0.0042 | 0.621 ± 0.045 |
| MDAMB231 BREAST | 0.853 ± 0.013 | 0.9576 ± 0.0047 | 0.969 ± 0.0068 | 0.978 ± 0.024 | 1.01 ± 0.018 | 1.005 ± 0.0054 | 0.908 ± 0.03 | 0.849 ± 0.019 | 1.01 ± 0.029 | 1.02 ± 0.025 | 1.03 ± 0.033 | 1.02 ± 0.011 | 0.988 ± 0.012 | 1.02 ± 0.032 | 0.913 ± 0.032 | 0.882 ± 0.025 |
| MDAMB361 BREAST | 0.842 ± 0.099 | 0.796 ± 0.056 | 0.816 ± 0.042 | 0.844 ± 0.06 | 0.93 ± 0.081 | 0.887 ± 0.1 | 0.903 ± 0.054 | 0.89 ± 0.12 | 0.893 ± 0.098 | 0.873 ± 0.034 | 0.959 ± 0.032 | 0.865 ± 0.035 | 0.941 ± 0.08 | 0.978 ± 0.066 | 0.928 ± 0.063 | 0.763 ± 0.063 |
| MDAMB436 BREAST | 0.95 ± 0.067 | 0.94 ± 0.04 | 1 ± 0.17 | 0.973 ± 0.029 | 1.04 ± 0.096 | 0.951 ± 0.097 | 1.04 ± 0.058 | 1.02 ± 0.11 | 0.949 ± 0.032 | 1.01 ± 0.11 | 0.946 ± 0.04 | 0.976 ± 0.039 | 1.01 ± 0.11 | 0.907 ± 0.015 | 1.04 ± 0.077 | 0.932 ± 0.033 |
| MDAMB453 BREAST | 1.04 ± 0.049 | 1.01 ± 0.034 | 1.09 ± 0.051 | 1.03 ± 0.052 | 1.01 ± 0.092 | 1.06 ± 0.014 | 1.06 ± 0.062 | 1.02 ± 0.041 | 1.11 ± 0.035 | 1.11 ± 0.068 | 1.12 ± 0.019 | 1.13 ± 0.043 | 1.12 ± 0.037 | 1.15 ± 0.049 | 0.663 ± 0.016 | 0.52 ± 0.035 |
| MDAMB468 BREAST | 1.04 ± 0.089 | 1.11 ± 0.044 | 1.05 ± 0.057 | 1.09 ± 0.017 | 1.13 ± 0.067 | 1.15 ± 0.07 | 1.05 ± 0.086 | 1.07 ± 0.092 | 1.04 ± 0.059 | 1.12 ± 0.047 | 1.11 ± 0.092 | 1.09 ± 0.016 | 1.14 ± 0.086 | 1.1 ± 0.1 | 1.1 ± 0.056 | 1.05 ± 0.05 |
| MFM223 BREAST | 1.12 ± 0.16 | 1.04 ± 0.048 | 1.12 ± 0.094 | 1.06 ± 0.086 | 1.16 ± 0.17 | 1.22 ± 0.073 | 1.05 ± 0.029 | 0.824 ± 0.098 | 1.16 ± 0.069 | 1.08 ± 0.12 | 1.09 ± 0.077 | 1.12 ± 0.024 | 1.06 ± 0.13 | 0.813 ± 0.053 | 0.336 ± 0.02 | 0.29 ± 0.014 |
| MG63 BONE | 0.966 ± 0.019 | 1.02 ± 0.042 | 1.05 ± 0.021 | 1.03 ± 0.032 | 1.03 ± 0.019 | 0.946 ± 0.037 | 0.724 ± 0.011 | 0.696 ± 0.031 | 1.02 ± 0.075 | 1.03 ± 0.06 | 1.08 ± 0.065 | 0.999 ± 0.032 | 0.965 ± 0.061 | 0.865 ± 0.065 | 0.666 ± 0.059 | 0.584 ± 0.029 |
| MHM BONE | 1.02 ± 0.045 | 1.01 ± 0.037 | 1.02 ± 0.026 | 1.04 ± 0.043 | 1.044 ± 0.0055 | 0.99 ± 0.021 | 0.896 ± 0.022 | 0.915 ± 0.019 | 1.033 ± 0.0097 | 1.01 ± 0.024 | 1.025 ± 0.0038 | 1.074 ± 0.0044 | 1.05 ± 0.033 | 1.03 ± 0.037 | 0.981 ± 0.019 | 0.937 ± 0.05 |
| NCIH441 LUNG | 1.07 ± 0.042 | 1.02 ± 0.038 | 1.07 ± 0.036 | 0.963 ± 0.056 | 1.07 ± 0.028 | 1.06 ± 0.021 | 1.01 ± 0.031 | 0.845 ± 0.019 | 1.02 ± 0.12 | 1.11 ± 0.1 | 1.07 ± 0.11 | 1 ± 0.019 | 0.994 ± 0.083 | 1.09 ± 0.041 | 1.09 ± 0.075 | 1.01 ± 0.04 |
| NOS1 BONE | 1.09 ± 0.062 | 1.08 ± 0.012 | 1.12 ± 0.078 | 1.16 ± 0.073 | 0.944 ± 0.029 | 0.841 ± 0.04 | 0.68 ± 0.077 | 0.579 ± 0.041 | 1.09 ± 0.012 | 1.01 ± 0.079 | 1.24 ± 0.34 | 0.922 ± 0.074 | 0.826 ± 0.034 | 0.703 ± 0.021 | 0.624 ± 0.087 | 0.529 ± 0.011 |
| NY BONE | 0.9253 ± 0.009 | 0.98 ± 0.036 | 1.02 ± 0.016 | 0.989 ± 0.024 | 0.9377 ± 0.0067 | 0.887 ± 0.011 | 0.784 ± 0.022 | 0.768 ± 0.026 | 1.01 ± 0.073 | 1.04 ± 0.048 | 1.05 ± 0.048 | 1.02 ± 0.065 | 1.04 ± 0.045 | 1.05 ± 0.018 | 0.869 ± 0.023 | 0.674 ± 0.007 |
| OS25HAL BONE | 0.957 ± 0.017 | 0.963 ± 0.02 | 1.02 ± 0.021 | 0.93 ± 0.022 | 0.941 ± 0.041 | 0.875 ± 0.029 | 0.8397 ± 0.0068 | 0.806 ± 0.068 | 1.03 ± 0.026 | 1.026 ± 0.0067 | 1.01 ± 0.016 | 1.01 ± 0.05 | 0.98 ± 0.027 | 0.938 ± 0.025 | 0.895 ± 0.016 | 0.88 ± 0.021 |
| OSHN BONE | 1.033 ± 0.005 | 1.024 ± 0.0035 | 1.03 ± 0.011 | 1.02 ± 0.0032 | 1.006 ± 0.0085 | 0.958 ± 0.02 | 0.928 ± 0.015 | 0.908 ± 0.027 | 1.11 ± 0.034 | 1.11 ± 0.044 | 1.11 ± 0.033 | 1.11 ± 0.052 | 1.1 ± 0.02 | 1.1 ± 0.035 | 1.1 ± 0.027 | 1.07 ± 0.011 |
| PCI30 HEADNECK | 0.86 ± 0.039 | 0.864 ± 0.05 | 0.954 ± 0.066 | 1.07 ± 0.048 | 1 ± 0.019 | 1.03 ± 0.057 | 0.841 ± 0.036 | 0.84 ± 0.15 | 0.998 ± 0.031 | 1.08 ± 0.06 | 1.06 ± 0.082 | 1.07 ± 0.057 | 1.14 ± 0.084 | 1.11 ± 0.08 | 1.11 ± 0.073 | 1.17 ± 0.06 |
| RDES SOFT TISSUE | 1.2 ± 0.077 | 1.09 ± 0.1 | 1.21 ± 0.064 | 1.13 ± 0.083 | 1.23 ± 0.12 | 1.09 ± 0.076 | 1.1 ± 0.03 | 1.22 ± 0.22 | 1.33 ± 0.018 | 1.38 ± 0.032 | 1.15 ± 0.067 | 1.23 ± 0.083 | 1.28 ± 0.18 | 1.09 ± 0.14 | 1.09 ± 0.18 | 0.964 ± 0.25 |
| S68 BREAST | 1.05 ± 0.1 | 0.948 ± 0.075 | 0.937 ± 0.071 | 1.32 ± 0.15 | 1.2 ± 0.23 | 1.24 ± 0.41 | 0.986 ± 0.24 | 0.889 ± 0.23 | 0.924 ± 0.35 | 0.961 ± 0.079 | 0.971 ± 0.29 | 1.18 ± 0.2 | 1.09 ± 0.091 | 1.1 ± 0.26 | 0.858 ± 0.34 | 1.16 ± 0.22 |
| SAOS2 BONE | 1.13 ± 0.038 | 1.12 ± 0.069 | 1.18 ± 0.12 | 1.14 ± 0.015 | 1.17 ± 0.14 | 1.14 ± 0.14 | 0.993 ± 0.073 | 1.01 ± 0.14 | 1.1 ± 0.024 | 1.07 ± 0.0063 | 1.17 ± 0.029 | 1.16 ± 0.047 | 1.12 ± 0.046 | 1.15 ± 0.075 | 1.062 ± 0.0029 | 1.011 ± 0.0035 |
| SCC003 HEADNECK | 0.921 ± 0.063 | 0.878 ± 0.055 | 0.97 ± 0.02 | 0.965 ± 0.047 | 1.08 ± 0.011 | 1.04 ± 0.029 | 0.98 ± 0.03 | 0.936 ± 0.1 | 1.18 ± 0.074 | 1.1 ± 0.13 | 1.16 ± 0.12 | 1.1 ± 0.032 | 1.13 ± 0.1 | 1.18 ± 0.064 | 1.13 ± 0.051 | 1.1 ± 0.098 |
| SCC36 HEADNECK | 1.03 ± 0.092 | 0.961 ± 0.074 | 1.09 ± 0.066 | 1.02 ± 0.032 | 1.1 ± 0.09 | 1.07 ± 0.073 | 1.07 ± 0.11 | 0.88 ± 0.081 | 1.06 ± 0.041 | 1.12 ± 0.063 | 1.12 ± 0.18 | 1.21 ± 0.064 | 1.18 ± 0.044 | 1.08 ± 0.036 | 1.01 ± 0.044 | 1.05 ± 0.025 |
